Test results as given in patent US9695155B2, “Herbicidal substituted pyrimidinyloxy benzene compounds” (E. I. DU PONT DE NEMOURS AND COMPANY, priority 2013, dated 2017).

What was measured:
[1] = test system: bromegrass, downy; experiment: Test D preemergence; assay type: in vivo, Bromus tectorum; conditions: Bromus tectorum, pre-emergence, scale 0-100, read-out: Plant response rating, Bromegrass, Downy
How it was run: (§1)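 Values are 0–100 visual control ratings (0 none, 100 complete) given 7–21 days after application. Soil for preemergence was silt loam; postemergence plants stood 2–18 cm tall.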

[2] = test system: windgrass; experiment: Test D preemergence; assay type: in vivo, Apera spica-venti; conditions: Apera spica-venti, pre-emergence
How it was run: as §1

[3] = test system: wild mustard; experiment: Test D preemergence; assay type: in vivo, Sinapis arvensis; conditions: Brassica, pre-emergence, scale 0-100, read-out: Plant response rating, Mustard, Wild
How it was run: as §1

[4] = test system: wild poinsettia; experiment: Test E postemergence; assay type: in vivo, Euphorbia heterophylla; conditions: Euphorbia heterophylla, post-emergence, read-out: Plant response rating, Poinsettia, Wild
Excerpt: (§2) Seeds of plant species selected from corn (Zea mays), soybean (Glycine max), velvetleaf (Abutilon theophrasti), lambsquarters (Chenopodium album), wild poinsettia (Euphorbia heterophylla), palmer pigweed (Amaranthus palmeri), waterhemp (common waterhemp, Amaranthus rudis), surinam grass (Brachiaria decumbens), large (Lg) crabgrass (Digitaria sanguinalis), Brazilian crabgrass (Digitaria horizontalis), fall panicum (Panicum dichotomiflorum), giant foxtail (Setaria faberii), green foxtail (Setaria viridis), goosegrass (Eleusine indica), johnsongrass (Sorghum halepense), ragweed (common ragweed, Ambrosia elatior), barnyardgrass (Echinochloa crus-galli), sandbur (southern sandbur, Cenchrus echinatus), arrowleaf sida (Sida rhombifolia), Italian ryegrass (Lolium multiflorum), dayflower (Virginia (VA) dayflower, Commelina virginica), field bindweed (Convolvulus arvensis), morningglory (Ipomoea coccinea), nightshade (eastern black nightshade, Solanum ptycanthum), kochia (Kochia scoparia), yellow nutsedge (Cyperus esculentus), cocklebur (common cocklebur, Xanthium strumarium), smartweed (ladysthumb smartweed, and hairy beggarticks (Bidens pilosa), were planted into a silt loam soil and treated preemergence with test chemicals formulated in a non-phytotoxic solvent mixture which included a surfactant.
(§3) At the same time, plants from these crop and weed species and also horseweed (Canada horseweed, Conyza canadensis), waterhemp_RES1, (ALS & Triazine resistant common waterhemp, Amaranthus rudis), and waterhemp_RES2, (ALS & HPPD resistant common waterhemp, Amaranthus rudis) were planted in pots containing Redi-Earth® planting medium (Scotts Company, 14111 Scottslawn Road, Marysville, Ohio 43041) comprising spaghnum peat moss, vermiculite, wetting agent and starter nutrients were treated with postemergence applications of test chemicals formulated in the same manner. Plants ranged in height from 2 to 18 cm for postemergence treatments (1- to 4-leaf stage). Treated plants and controls were maintained in a greenhouse for 14 to 21 days, after which time all species were compared to controls and visually evaluated. Plant response ratings, summarized in Table E, are based on a scale of 0 to 100 where 0 is no effect and 100 is complete control. A dash (-) response means no test result.

[5] = test system: speedwell; experiment: Test D postemergence; assay type: in vivo, Veronica persica; conditions: Veronica persica, post-emergence, scale 0 to 100 (0 no effect, 100 complete control), read-out: Plant response rating, Speedwell
How it was run: as §1

[6] = test system: spring wheat; experiment: Test D postemergence; assay type: in vivo, Triticum aestivum; conditions: Triticum aestivum, post-emergence, scale 0 to 100 (0 no effect, 100 complete control), read-out: Plant response rating, Wheat, Spring
How it was run: as §1

[7] = test system: winter wheat; experiment: Test D postemergence; assay type: in vivo, Triticum aestivum; conditions: Triticum aestivum, post-emergence, scale 0 to 100 (0 no effect, 100 complete control), read-out: Plant response rating, Wheat, Winter
How it was run: as §1

[8] = test system: arrowleaf sida; experiment: Test E postemergence; assay type: in vivo, Sida rhombifolia; conditions: Sida rhombifolia, post-emergence, read-out: Plant response rating, Arrowleaf Sida
How it was run: (§4)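 Compound in a non-phytotoxic solvent mixture with surfactant was applied preemergence to seeds in silt loam soil, or postemergence to plants 2 to 18 cm tall grown in peat-based potting medium. Plants were kept in a greenhouse for 14 to 21 days, then rated visually against untreated controls on a 0 (no effect) to 100 (complete control) scale.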

[9] = test system: corn; experiment: Test E postemergence; assay type: in vivo, Zea mays; conditions: Zea mays, post-emergence
Excerpt: as §2, §3

[10] = test system: galium; experiment: Test D preemergence; assay type: in vivo, Galium aparine; conditions: Galium, pre-emergence, scale 0-100, read-out: Plant response rating, Galium
How it was run: as §1

[11] = test system: canarygrass; experiment: Test D preemergence; assay type: in vivo, Phalaris minor; conditions: Phalaris minor, pre-emergence, scale 0-100, read-out: Plant response rating, Canarygrass
How it was run: as §1

[12] = test system: kochia; experiment: Test D postemergence; assay type: in vivo, Kochia scoparia; conditions: Bassia scoparia, post-emergence, scale 0 to 100 (0 no effect, 100 complete control), read-out: Plant response rating, Kochia
How it was run: as §1

[13] = test system: lambsquarters; experiment: Test D preemergence; assay type: in vivo, Chenopodium album; conditions: Chenopodium album, pre-emergence, scale 0-100, read-out: Plant response rating, Lambsquarters
How it was run: as §1

[14] = test system: dayflower; experiment: Test E postemergence; assay type: in vivo, Commelina virginica; conditions: Commelina virginica, post-emergence, read-out: Plant response rating, Dayflower, VA
How it was run: as §4

[15] = Postemergence, 31 g ai/ha, scale 0 to 100
[16] = Postemergence, 62 g ai/ha, scale 0 to 100
[17] = Postemergence, 125 g ai/ha, scale 0 to 100
[18] = Postemergence, 250 g ai/ha, scale 0 to 100
[19] = postemergence, 16 g ai/ha, scale 0 to 100, 0 no effect, 100 complete control

Structure (SMILES): N#Cc1cccc(Oc2ncc(Br)cn2)c1-n1cc(C(F)(F)F)cn1 [Compound 59, 3-[(5-bromo-2-pyrimidinyl)oxy]-2-[4-(trifluoromethyl)-1H-pyrazol-1-yl]benzonitrile]
- pest or weed control at 31 g/ha ([1]; 31 g ai/ha): 0%
- pest or weed control at 62 g/ha ([1]; 62 g ai/ha): 0%
- pest or weed control at 125 g/ha ([1]; 125 g ai/ha): 10%
- pest or weed control at 250 g/ha ([1]; 250 g ai/ha): 40%
- pest or weed control at 31 g/ha ([2]; 31 g ai/ha, scale 0 (no effect) to 100 (complete control), read-out: Plant response rating, Windgrass): 70%
- pest or weed control at 62 g/ha ([2]; 62 g ai/ha, scale 0-100, read-out: Plant response rating, Windgrass): 100%
- pest or weed control at 125 g/ha ([2]; 125 g ai/ha, scale 0-100, read-out: Plant response rating, Windgrass): 100%
- pest or weed control at 250 g/ha ([2]; 250 g ai/ha, scale 0-100, read-out: Plant response rating, Windgrass): 100%
- pest or weed control at 31 g/ha ([3]; 31 g ai/ha): 15%
- pest or weed control at 62 g/ha ([3]; 62 g ai/ha): 100%
- pest or weed control at 125 g/ha ([3]; 125 g ai/ha): 100%
- pest or weed control at 250 g/ha ([3]; 250 g ai/ha): 100%
- pest or weed control at 31 g/ha [4, 15]: 50%
- pest or weed control at 62 g/ha [4, 16]: 60%
- pest or weed control at 125 g/ha [4, 17]: 65%
- pest or weed control at 250 g/ha [4, 18]: 80%
- pest or weed control at 16 g/ha [4, 19]: 50%
- pest or weed control at 31 g/ha ([5]; 31 g ai/ha): 100%
- pest or weed control at 62 g/ha ([5]; 62 g ai/ha): 75%
- pest or weed control at 125 g/ha ([5]; 125 g ai/ha): 100%
- pest or weed control at 250 g/ha ([5]; 250 g ai/ha): 100%
- plant injury at 31 g/ha ([6]; 31 g ai/ha): 10%
- plant injury at 62 g/ha ([6]; 62 g ai/ha): 15%
- plant injury at 125 g/ha ([6]; 125 g ai/ha): 20%
- plant injury at 250 g/ha ([6]; 250 g ai/ha): 25%
- plant injury at 31 g/ha ([7]; 31 g ai/ha): 10%
- plant injury at 62 g/ha ([7]; 62 g ai/ha): 15%
- plant injury at 125 g/ha ([7]; 125 g ai/ha): 20%
- plant injury at 250 g/ha ([7]; 250 g ai/ha): 20%
- pest or weed control at 31 g/ha [8, 15]: 70%
- pest or weed control at 62 g/ha [8, 16]: 80%
- pest or weed control at 125 g/ha [8, 17]: 85%
- pest or weed control at 250 g/ha [8, 18]: 90%
- pest or weed control at 16 g/ha [8, 19]: 65%
- corn plant response (injury) rating, 0-100 at 31 g/ha [9, 15]: 5%
- corn plant response (injury) rating, 0-100 at 62 g/ha [9, 16]: 10%
- corn plant response (injury) rating, 0-100 at 125 g/ha [9, 17]: 10%
- corn plant response (injury) rating, 0-100 at 250 g/ha [9, 18]: 15%
- corn plant response (injury) rating, 0-100 at 16 g/ha [9, 19]: 5%
- pest or weed control at 31 g/ha ([10]; 31 g ai/ha): 0%
- pest or weed control at 62 g/ha ([10]; 62 g ai/ha): 95%
- pest or weed control at 125 g/ha ([10]; 125 g ai/ha): 60%
- pest or weed control at 250 g/ha ([10]; 250 g ai/ha): 100%
- pest or weed control at 31 g/ha ([11]; 31 g ai/ha): 5%
- pest or weed control at 62 g/ha ([11]; 62 g ai/ha): 15%
- pest or weed control at 125 g/ha ([11]; 125 g ai/ha): 65%
- pest or weed control at 250 g/ha ([11]; 250 g ai/ha): 100%
- pest or weed control at 31 g/ha ([12]; 31 g ai/ha): 95%
- pest or weed control at 62 g/ha ([12]; 62 g ai/ha): 95%
- pest or weed control at 125 g/ha ([12]; 125 g ai/ha): 95%
- pest or weed control at 250 g/ha ([12]; 250 g ai/ha): 95%
- pest or weed control at 31 g/ha ([13]; 31 g ai/ha): 95%
- pest or weed control at 62 g/ha ([13]; 62 g ai/ha): 100%
- pest or weed control at 125 g/ha ([13]; 125 g ai/ha): 95%
- pest or weed control at 250 g/ha ([13]; 250 g ai/ha): 100%
- pest or weed control at 31 g/ha [14, 15]: 35%
- pest or weed control at 62 g/ha [14, 16]: 50%
- pest or weed control at 125 g/ha [14, 17]: 70%
- pest or weed control at 250 g/ha [14, 18]: 100%
- pest or weed control at 16 g/ha [14, 19]: 20%
